Data published in patent publication US20250228239A1, “MOLECULES HAVING PESTICIDAL UTILITY, AND INTERMEDIATES, COMPOSITIONS, AND PROCESSES, RELATED THERETO” (priority 2024, published 2025).

Key:
[1] = tested on: Beet Armyworm (Spodoptera exigua, LAPHEG); experiment: Bioassays on Beet Armyworm (BAW), 128-well diet tray assay; assay type: in vivo; conditions: Spodoptera exigua; Beet Armyworm; rating class; read-out: BAW
In short: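 Mortality of second-instar larvae (1–5/well) on artificial diet treated with 50 μg/cm^2 compound, read after 5–7 days at 25° C.; values are means of eight wells.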

[2] = tested on: Cabbage Looper (Trichoplusia ni, TRIPNI); experiment: Bioassays on Cabbage Looper (CL), 128-well diet tray assay; assay type: in vivo; conditions: Trichoplusia ni; Cabbage Looper; rating class; read-out: CL
In short: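 One to five second-instar larvae per well on artificial diet surface-treated with 50 μg/cm^2 test molecule (applied in 90:10 acetone-water, dried). Held 5–7 days at 25° C, 14:10 light-dark; percent mortality recorded per well and averaged over eight wells.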

Structure (SMILES) | pest or weed control at 50 µg/cm2 [1] [%] | pest or weed control at 50 µg/cm2 [2] [%]
O=C(Nc1ccc(F)cc1F)c1c(Cl)ccc(NC(=O)[C@H]2[C@H](c3ccc(F)c(Cl)c3)C2(Cl)Cl)c1F [F1464, 6-Chloro-3-((1R,3R)-2,2-dichloro-3-(3-chloro-4-fluorophenyl)cyclopropane-1-carboxamido)-N-(2,4-difluorophenyl)-2-fluorobenzamide] | 50 to 100 | 50 to 100
Cc1cc(NC(=O)[C@H]2[C@H](c3ccc(F)c(C(F)(F)F)c3)C2(Cl)Cl)cc(C(=O)Nc2c(F)ccc(NC(=O)C(F)F)c2F)c1Cl [F1468, 2-Chloro-5-((1R,3R)-2,2-dichloro-3-(4-fluoro-3-(trifluoromethyl)phenyl)cyclopropane-1-carboxamido)-N-(3-(2,2-difluoroacetamido)-2,6-difluorophenyl)-3-methylbenzamide] | 50 to 100 | 50 to 100
Cc1cc(NC(=O)[C@H]2[C@H](c3ccc(F)c(C(F)(F)F)c3)C2(Cl)Cl)cc(C(=O)Nc2c(F)ccc(NC(=O)C(F)(F)F)c2F)c1Cl [F1469, 2-Chloro-5-((1R,3R)-2,2-dichloro-3-(4-fluoro-3-(trifluoromethyl)phenyl)cyclopropane-1-carboxamido)-N-(2,6-difluoro-3-(2,2,2-trifluoroacetamido)phenyl)-3-methylbenzamide] | 50 to 100 | 50 to 100
Cc1cc(NC(=O)[C@H]2[C@H](c3ccc(Cl)c(Cl)c3)C2(Cl)Cl)cc(C(=O)Nc2cc(N)c(F)cc2F)c1Cl [F1470, N-(5-Amino-2,4-difluorophenyl)-2-chloro-5-((1R,3R)-2,2-dichloro-3-(3,4-dichlorophenyl)cyclopropane-1-carboxamido)-3-methylbenzamide] | 50 to 100 | 50 to 100
O=C(Nc1ccc(F)c(NC(=O)C(F)(F)c2ccccc2)c1F)c1cc(NC(=O)[C@H]2[C@H](c3ccc(Cl)c(Cl)c3)C2(Cl)Cl)ccc1Cl [F1471, 2-Chloro-5-((1R,3R)-2,2-dichloro-3-(3,4-dichlorophenyl)cyclopropane-1-carboxamido)-N-(3-(2,2-difluoro-2-phenylacetamido)-2,4-difluorophenyl)benzamide] | 50 to 100 | 50 to 100
CCC(=O)Nc1c(F)ccc(NC(=O)c2cc(NC(=O)[C@H]3[C@H](c4ccc(Cl)c(Cl)c4)C3(Cl)Cl)ccc2Cl)c1F [F1472, 2-Chloro-5-((1R,3R)-2,2-dichloro-3-(3,4-dichlorophenyl)cyclopropane-1-carboxamido)-N-(2,4-difluoro-3-propionamidophenyl)benzamide] | 50 to 100 | 50 to 100
CCOC(=O)Nc1c(F)ccc(NC(=O)c2cc(NC(=O)[C@H]3[C@H](c4ccc(Cl)c(Cl)c4)C3(Cl)Cl)ccc2Cl)c1F [F1476, Ethyl (3-(2-chloro-5-((1R,3R)-2,2-dichloro-3-(3,4-dichlorophenyl)cyclopropane-1-carboxamido)benzamido)-2,6-difluorophenyl)carbamate] | 50 to 100 | 50 to 100
Cc1cc(NC(=O)[C@H]2[C@H](c3cc(Cl)c(Cl)c(Cl)c3)C2(Cl)Cl)cc(C(=O)Nc2cc(N)c(F)cc2F)c1Cl [F1477, N-(5-Amino-2,4-difluorophenyl)-2-chloro-5-((1R,3R)-2,2-dichloro-3-(3,4,5-trichlorophenyl)cyclopropane-1-carboxamido)-3-methylbenzamide] | 50 to 100 | 50 to 100
Cc1cc(NC(=O)[C@H]2[C@H](c3ccc(F)c(C(F)(F)F)c3)C2(Cl)Cl)cc(C(=O)Nc2cc(N)c(F)cc2F)c1Cl [F1478, N-(5-Amino-2,4-difluorophenyl)-2-chloro-5-((1R,3R)-2,2-dichloro-3-(4-fluoro-3-(trifluoromethyl)phenyl)cyclopropane-1-carboxamido)-3-methylbenzamide] | 50 to 100 | 50 to 100
